The nature of data set [1]: Cytotoxicity, general statement. The note with it: biocompatible solution according to the invention, in comparison with trypan blue. The data set is classed as cell-based. The text has this: Trypan blue is a cytotoxic substance, as is known for example from Solomon K D et al: Protective effect of the anterior lens capsule during extra capsular cataract extraction, OPHTHALMOLOGY, Vol 96, No 5, May 1989, 591-597, and Veckener M et al: Ocular toxicity study of trypan blue injected into the vitreous cavity of rabbit eyes, Graefe's Arch. Clin. Ex. Ophthalmol. (2002) 239:698-704. When using trypan blue therefore complete flushing out in particular of the region of the eye in which the trypan blue was used as a dye agent is required immediately after the cataract operation in order to prevent it from remaining in the body or in the eye for a prolonged period of time.

For the next data set, the system named is mouse cells L 929. Kind of data set: Cytotoxicity by protein content of treated cell cultures vs untreated controls (growth inhibition). It is filed as cell-based. The following applies: L 929 cells, differing levels of concentration, 68 to 72 hours in an incubator, protein content vs untreated control. From the text: (§1) The vitality of the cells and a deduced cytotoxicity is quantitatively determined by determining the protein content of the treated cell cultures in comparison with untreated control cultures. The protein content is ascertained by a colorimetric procedure with a standard process.
(§2) It is found in this respect that cytotoxicity of a significant level corresponding to growth inhibition of more than 30% is not present.

In another data set the test system is ARPE-19-cells. Described as above. The data set is classed as cell-based. The note with it: differing levels of concentration, 68 to 72 hours in an incubator, protein content vs untreated control.
Text: as §1, §2

For data set [2] the following is noted: Cahen 1964 and BLURHEX product information; cited from earlier work.
The conditions of data set [3]: known from Solomon et al 1989 and Veckener et al 2002 (rabbit eyes); cited from earlier work.

The values that follow come from patent publication US20060140863A1, “Production of a dye agent for colouring cells in the human or animal body” (Fluoron GMBH, priority 2002, published 2006).

Read-outs that look alike come from different tables or passages of the source.

Consider brilliant blue R, for which the cytotoxicity result in data set [1] was “does not have any cytotoxicity”.

Turning to `CCN(CC)c1ccc(C(=C2C=CC(=[N+](CC)CC)C=C2)c2cc(O)c(S(=O)(=O)[O-])cc2S(=O)(=O)[O-])cc1.CCN(CC)c1ccc(C(=C2C=CC(=[N+](CC)CC)C=C2)c2cc(O)c(S(=O)(=O)[O-])cc2S(=O)(=O)[O-])cc1.[Ca+2]` [patent blue V], the “growth inhibition (cytotoxicity of a significant level = more than 30%)” value with mouse cells L 929 and in the data set with ARPE-19-cells was at most 30% throughout. For the same molecule, the cytotoxicity entry in data set [1] was “does not have any cytotoxicity”.

As to `Cc1cc(-c2ccc(/N=N/c3c(S(=O)(=O)O)cc4cc(S(=O)(=O)O)cc(N)c4c3O)c(C)c2)ccc1/N=N/c1c(S(=O)(=O)O)cc2cc(S(=O)(=O)O)cc(N)c2c1O` [Trypan blue, trypan blue], the “teratogenic or mutagenic action” value in data set [2] is listed as “teratogenic or mutagenic action”. Further, the cytotoxicity result in data set [3] is on record as “cytotoxic”.
